Laboratory results reported in PMC10487970, “Exploring the Impact of Head Group Modifications on the Anticancer Activities of Fatty-Acid-like Platinum(IV) Prodrugs: A Structure–Activity Relationship Study” (International Journal of Molecular Sciences, 2023).

Tests used:
[1] = test system: A2780cis ovarian cancer cells; test: MTT cytotoxicity assay, A2780cis; format: cell-based, human; settings: 24 h treatment, cisplatin-resistant A2780cis
Protocol: (§1) Cytotoxicity profiles of FALP derivatives with various head groups . The in vitro anticancer activity of the Pt(IV) prodrugs (1–9) was assessed using the 3-(4,5-dimethylthiazol-2-yl)-2,5-diphenyltetrazolium bromide (MTT) assay. This study utilized two human cancer cell lines, namely A2780cis and MDA-MB-231. A2780cis is an ovarian cancer cell line known for its resistance to conventional platinum chemotherapy, making it a formidable challenge to treat. On the other hand, MDA-MB-231 represents a triple-negative breast cancer cell line, which is currently recognized as one of the difficult-to-treat cancer types. The cells were treated with 1–9 or cisplatin for 24 h, and the cell viability was evaluated. The IC50 values, which represent the concentration of the drug required to inhibit the growth of cells by 50%, are reported in the table in Figure 1B. […] Overall, the head group modifications of FALPs result in an alternation of therapeutic effects, which is a promising way to fine-tune the anticancer activity of this class of metallodrugs.
(§2) Cell culture. A2780cis cell lines were purchased from Sigma-Aldrich and cultured in RPMI 1640 with L-glutamine (Corning, New York, NY, USA) supplemented with 10% FBS (Atlanta Biologicals, USA) and 1% penicillin-streptomycin (Corning). The MDA-MB-231 cell line was obtained via American Type Culture Collection, and cultured in DMEM 1 g/L glucose, with L-glutamine and sodium pyruvate (Corning) supplemented with 10% FBS and 1% penicillin-streptomycin (Corning). All cell lines were cultured at 37 °C under an atmosphere containing 5% CO2. Cells were passaged upon reaching 80–90% confluence via trypsinization and split in a 1:5 ratio.
(§3) MTT assays. Cytotoxicity profiles of compounds 1–9 and cisplatin against different cell lines (A2780cis and MDA-MB-231) were evaluated using the MTT assays. A volume of 100 μL of a RPMI or DMEM containing 8 × 10^4 cells/mL was seeded in 96-well plates. The plates were incubated for 24 h at 37 °C with 5% CO2 to allow for adherence of cells. A volume of 50 μL of RPMI or DMEM with various concentrations of cisplatin or compounds 1–9 were added to each well of the microplates. The Pt concentrations were determined via GFAAS. After 24 h, a volume of 30 μL of MTT (5.0 mg/mL in PBS, Alfa Aesar, Haverhill, MA, USA) was added to each well of the microplates. After 24 h, the medium was aspirated, and 200 μL of DMSO was added to each well. The plates were shaken gently on a shaker at r.t. for 10 min. Then, the absorbance of purple formazan was recorded at 562 nm with a BioTek ELx800 plate reader. IC50 values were determined using Origin software v7.0. All experiments were performed in triplicate.

[2] = test system: MDA-MB-231 breast cancer cells; test: MTT cytotoxicity assay, MDA-MB-231; format: cell-based, human; settings: 24 h treatment, triple-negative MDA-MB-231
Protocol: as §1, §2, §3

[3] = test system: mitochondrial ROS in A2780cis cells; test: Flow cytometric analysis of MitoSOX (mitochondrial ROS); format: cell-based, human; settings: [Pt] = 10 μM, 24 h, control 41.1%
Protocol: (§4) Cellular Responses of FALP derivatives with head groups of different hydrophobicity. Based on the observation that hydrophilic head group modifications lead to increased intracellular Pt levels, we formulated the hypothesis that such modifications would result in greater mitochondrial and DNA damage, as well as increased apoptosis. MitoSOX was utilized to assess the levels of mitochondrial ROS, while the γH2AX levels were analyzed to determine DNA damage. As mitochondrial and DNA damage are known to promote apoptosis, Annexin V/PI assays were also conducted to examine the apoptotic effects. A flow cytometric analysis was used to evaluate the mitochondrial ROS, γH2AX, and apoptosis in the cancer cells treated with FALPs (2 and 7) in the experiments. […] Based on the results, it can be inferred that the FALP derivative (2) with a hydrophilic head group modification induces mitochondrial and DNA damage as well as apoptosis more effectively than the one (7) with a hydrophobic modification.
Flow cytometric analysis of MitoSOX. A2780cis cells were seeded in 6-well plate at a concentration of 6 × 10^4 cells/mL and incubated overnight. […] The cells were then re-suspended in PBS with 0.5% BSA to reach 10^6 cells/mL and analyzed with BD Accuri C6 flow cytometer using FL-2 channel, and data were processed with FlowJo v10.

[4] = GFAAS analysis of Log P values (H2O:octanol); format: physicochemical; settings: H2O:octanol 1:1, Pt content of each phase by GFAAS; whole compound
Protocol: The samples were first dissolved with DMSO to create 200 µM stocks. From these stocks, 50 µL was added to a H2O:Octanol mixture with a 1:1 volume ratio. This mixture was vortexed for 5 min and subsequently centrifuged for 3 min at 3000 rpm. Following centrifugation, the H2O and octanol layers were isolated for analysis. The Pt content in each phase was quantified using GFAAS to calculate the Log P value.

A2780cis cells [5] = test: GFAAS analysis of cellular platinum contents; format: cell-based, human; settings: [Pt] = 1 μM, 24 h
Source text: (§5) Cell entry and mitochondrial accumulation of FALP derivatives with head groups of different hydrophobicities. Our next objective was to gain a more detailed understanding of how modifications to the head group of FALPs affect their anticancer activities through hydrophobicity. Cellular uptake is widely recognized as a critical factor in the activity of metallodrugs. The influence of hydrophobicity on the cellular uptake of therapeutic molecules has been widely acknowledged, with an increase in hydrophobicity typically promoting cell entry. To this end, we conducted a graphite furnace atomic absorption spectroscopic (GFAAS) analysis of the cellular uptake for FALPs with various head group modifications, including 2 and 7. […] We previously discovered that mitochondria play significant roles in the mechanism of action of FALPs, so we further investigated how the hydrophobicity of the head group modifications affects the mitochondrial accumulation of FALPs. […] In summary, the introduction of a hydrophilic head group in FALPs promotes cell entry and mitochondrial accumulation.
GFAAS analysis of cellular platinum contents in A2780cis cells. […] The remaining live cells were harvested via trypsinization and counted. […] The Pt contents in the cells were analyzed via GFAAS. […]

[6] = test system: mitochondria of A2780cis cells; test: Measurement of mitochondrial platinum contents; format: cell-based, human; settings: [Pt] = 1 μM, 24 h, isolated mitochondria, GFAAS
Source text: as §5
Measurements of mitochondrial platinum contents in A2780cis cells. […] Next, the wells were washed with PBS (1 mL) and harvested via trypsinization (1 mL) and counted. […] Next, the fractions were diluted 4× in water and the platinum content was analyzed using GFAAS. […]

A2780cis cells [7] = test: Flow cytometric analysis of apoptosis (Annexin V/PI); format: cell-based, human; settings: [Pt] = 0.5 μM, 48 h
Protocol: as §4
Flow cytometric analysis of apoptosis. A2780cis cells were seeded in a 6-well plate at a concentration of 3 × 10^5 cells/well. Cells were then incubated at 37 °C 5% CO2 for 24 h. […] Both live and dead cells were collected, resuspended in 1mL PBS, and counted. […] Cells were then analyzed with FL-1 and FL-3 channels on a BD Accuri C6 flow cytometer and data were processed with FlowJo.

A2780cis cells [8] = test: LIVE/DEAD cell viability imaging assay; format: cell-based, human; settings: [Pt] = 1 μM, 24 h
Protocol: LIVE/DEAD cell viability assays. […] Before the assay, the cells were washed with 1 mL PBS and 1 mL dye-free RPMI to remove serum esterase activity that is generally present in serum-supplemented growth media. A 100 μL volume of LIVE/DEAD working solution (formed by mixing 2 µM of calcein AM and 2 μM ethidium homodimer-1 in PBS) was carefully added to the disk, which was then incubated at r.t. for 30 min. Images were acquired using an Olympus IX70 inverted epifluorescence microscope equipped with a digital CCD camera (QImaging, Surrey, BC, Canada). Images were processed, and intensities were quantified with ImageJ software (NIH).

Compound | IC50 [1] | IC50 [2] | MitoSOX (mitochondrial ROS, flow cytometry) [3] | Log P determined via GFAAS [4] | Cellular uptake (cellular Pt content) (A2780cis cells [5]) | Mitochondrial Pt content [6] | Apoptosis, Annexin V/PI plot, upper right quadrant (late stages of apoptosis) (A2780cis cells [7]) | Live/dead cell imaging result (A2780cis cells [8])
N.N.[Cl][Pt][Cl] [Cisplatin, cisplatin, reference compound] | 109 ± 13.5 µM | 92 ± 8 µM | insignificant change | – | – | – | – | –
CCCCCCCCCCCCCCCCNC(=O)[O][Pt]([NH2])([NH2])([Cl])([Cl])[O]C(=O)CCC(=O)NC12CC3CC(CC(C3)C1)C2 [Compound 8] | 5.07 ± 0.71 µM | 6.09 ± 0.3 µM | – | – | – | – | – | –
CCCCCCCCCCCCCCCCNC(=O)[O][Pt]([Cl])([Cl])[O]C(=O)CCC(=O)O.N.N [Compound 1] | 1 ± 0.06 µM | 6.3 ± 0.4 µM | – | – | – | – | – | –
CCCCCCCCCCCCCCCCNC(=O)[O][Pt]([NH2])([NH2])([Cl])([Cl])[O]C(=O)CCC(=O)NCCOC [Compound 3] | 0.7 ± 0.04 µM | 1.9 ± 0.3 µM | – | – | – | – | – | –
CCCCCCCCCCCCCCCCNC(=O)[O][Pt]([NH2])([NH2])([Cl])([Cl])[O]C(=O)CCC(=O)NCCOCCO [Compound 2] | 0.3 ± 0.06 µM | 0.76 ± 0.03 µM | – | 1.97 | 496.6 ± 16.09 pmol Pt/million cells | 31.7 ± 5.1 pmol Pt/million cells | 23.3% | effectively eliminated all drug-resistant A2780cis ovarian cancer cells
CCCCCCCCCCCCCCCCNC(=O)[O][Pt]([NH2])([NH2])([Cl])([Cl])[O]C(=O)CCC(=O)NCC(=O)OCC [Compound 5] | 0.39 ± 0.08 µM | 5.22 ± 1.03 µM | – | – | – | – | – | –
CCCCCCCCCCCCCCCCNC(=O)[O][Pt]([NH2])([NH2])([Cl])([Cl])[O]C(=O)CCC(=O)NCCC [Compound 6] | 1.12 ± 0.07 µM | 1.5 ± 0.4 µM | – | – | – | – | – | –
CCCCCCCCCCCCCCCCNC(=O)CCC(=O)[O][Pt]([NH2])([NH2])([Cl])([Cl])[O]C(=O)NCC(=O)OCC [Compound 9] | 0.4 ± 0.01 µM | 1.42 ± 0.07 µM | – | – | – | – | – | –
CCCCCCCCCCCCCCCCNC(=O)[O][Pt]([NH2])([NH2])([Cl])([Cl])[O]C(=O)CCC(=O)NCC#N [Compound 4] | 0.41 ± 0.05 µM | 1.63 ± 0.12 µM | – | – | – | – | – | –
CCCCCCCCCCCCCCCCNC(=O)[O][Pt]([NH2])([NH2])([Cl])([Cl])[O]C(=O)CCC(=O)NCCCCCC [Compound 7] | 3.75 ± 0.47 µM | 7.05 ± 0.8 µM | – | 2.57 | 60.03 ± 8.01 pmol Pt/million cells | 11.72 ± 2.76 pmol Pt/million cells | 3.58% | ineffective
